Measured values: patent US4024277A, “Phosphoro-aminosulfenyl derivatives of benzofuran carbamates” (priority 1975, dated 1977)

Key:
twospotted spider mite [1] = assay: Systemic insecticidal activity (soil/water), twospotted spider mite; format: in vivo, Tetranychus urticae Koch; conditions: Tetranychus urticae, 48-hour exposure, read-out: % Kill, Twospotted Spider Mite
Outline: (§1)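 Compound solution applied to soil of uninfested pinto bean or broad bean seedlings, host chosen by insect species. Usually a 72-hour translocation period preceded infestation, then a 48-hour exposure before evaluation.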

Mexican bean beetle [2] = assay: Systemic insecticidal activity (soil/water), Mexican bean beetle; format: in vivo, Epilachna varivestis Mulsant; conditions: Epilachna varivestis, 48-hour exposure, read-out: % Kill, Mexican Bean Beetle
Outline: as §1

German cockroaches [3] = assay: Level I immersion test, German cockroaches; format: in vivo, Blattella germanica (Linnaeus); conditions: GC (male), 5 mg/milliliter
Experimental: (§2) e. Insecticidal Activity Against House Flies and German Cockroaches
Compounds of this invention were tested in a Level I test at 5 mg. of active compounds/milliliter of a solution of 40% acetone -- 60% water.
In this test a group of ten house flies (Musca domestica Linnaeus) were completely immersed in 25 ml. of the insecticidal test solution. After 10 seconds of immersion, the test solution is removed. The house flies are then transferred to holding cages lines with paper toweling. In the case of the house flies, the knockdown counts were recorded 10 minutes after termination of the immersion. The percent kill was recorded after 18-24 hours.
The same Level I test technique was employed using male German cockroaches [Blattella germanica (Linnaeus)]. In this case, the knockdown counts were recorded 30 minutes after the termination of the immersion.

plum curculio = assay: Seven-day residual insecticidal activity, plum curculio; format: in vivo, Conotrachelus nenuphar (Herbst); conditions: Conotrachelus nenuphar, 48-hour exposure, read-out: % Kill, Plum Curculio
Description: (§3) b. Seven-Day Residual Insecticidal Activity
(§4) In this test, a candidate insecticide, in solution, is applied to uninfested plants or containers by dipping or spraying. A seven-day holding period is necessary before infestation. A 48-hour exposure period is observed before evaluation of the tests. The insect species used in this type of test are the same as those listed under initial activity.

twospotted spider mite [4] = assay: Initial insecticidal activity, twospotted spider mite; format: in vivo, Tetranychus urticae Koch; conditions: Tetranychus urticae, 48-hour exposure, read-out: % Kill, Twospotted Spider Mite
Outline: (§5)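 Candidate insecticide in solution sprayed or dipped onto plants or containers, infested before or after treatment depending on species. Read after 48-hour exposure. Solvent-only control included.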

Mexican bean beetle [5] = assay: Seven-day residual insecticidal activity, Mexican bean beetle; format: in vivo, Epilachna varivestis Mulsant; conditions: Epilachna varivestis, 48-hour exposure, read-out: % Kill, Mexican Bean Beetle
Description: as §3, §4

pea aphid [6] = assay: Systemic insecticidal activity (soil/water), pea aphid; format: in vivo, Acyrthosiphon pisum (Harris); conditions: Acyrthosiphon pisum, 48-hour exposure, read-out: % Kill, Pea Aphid
Outline: as §1

large milkweed bug = assay: Initial insecticidal activity, milkweed bug; format: in vivo, Oncopeltus fasciatus (Dallas); conditions: Oncopeltus fasciatus, 48-hour exposure, read-out: % Kill, Milkweed Bug
Outline: as §5

southern armyworm [7] = assay: Systemic insecticidal activity (soil/water), southern armyworm; format: in vivo, Spodoptera eridania (Cramer); conditions: Spodoptera eridania, 48-hour exposure, read-out: % Kill, Southern Armyworm
Outline: as §1

pea aphid [8] = assay: Initial insecticidal activity, pea aphid; format: in vivo, Acyrthosiphon pisum (Harris); conditions: Acyrthosiphon pisum, 48-hour exposure, read-out: % Kill, Pea Aphid
Outline: as §5

[9] = test system: female house flies (resistant); assay: Level II topical test, house flies; format: in vivo, Musca domestica Linnaeus; conditions: HF (female, resistant), one microgram topically per insect
Experimental: as §2
(§6) In a Level II test the compounds of this invention were tested for insecticidal activity against female house flies (resistant) and male German cockroaches. Ten insects were anesthetized with carbon dioxide and placed in a container for about 2 hours, during which time the insects recovered to normal activity. The container confining the insects is fitted with a plunger which is used to force the insects against a nylon mesh at one end of the container. One microliter of an acetone solution containing one microgram of the candidate insecticide was applied topically to each insect. The plunger was withdrawn and the insects were allowed to move freely about the container. Knockdown counts were recorded 10 minutes after treatment of house flies and 30 minutes after treatment of cockroaches.

confused flour beetle = assay: Initial insecticidal activity, confused flour beetle; format: in vivo, Tribolium confusum Jacquelin duVal; conditions: Tribolium confusum, 48-hour exposure, read-out: % Kill, Confused Flour Beetle
Outline: as §5

German cockroaches [10] = assay: Level II topical test, German cockroaches; format: in vivo, Blattella germanica (Linnaeus); conditions: GC (male), one microgram topically per insect
Experimental: as §2, §6

southern armyworm [11] = assay: Seven-day residual insecticidal activity, southern armyworm; format: in vivo, Spodoptera eridania (Cramer); conditions: Spodoptera eridania, 48-hour exposure, read-out: % Kill, Southern Armyworm
Description: as §3, §4

Q: How did the mortality at 39 ppm (twospotted spider mite [1]; 39 ppm) turn out when `CCOP(=O)(OCC)N(C)SN(C)C(=O)Oc1cccc2c1OC(C)(C)C2` [Example 1(c), 2,3-dihydro-2,2-dimethyl-7-benzofuranyl [(N-diethoxyphosphinyl) (N-methyl)-aminosulfenyl][methyl]carbamate] was run?
A: 2%

Q: And the mortality at 156 ppm (twospotted spider mite [1]; 156 ppm)?
A: 8%

Q: What about the mortality at 39 ppm (Mexican bean beetle [2]; 39 ppm) of the same molecule?
A: 100%

Q: And the mortality at 156 ppm (Mexican bean beetle [2]; 156 ppm)?
A: 95%

Q: What about the mortality at 5000 µg/mL (German cockroaches [3]; Blattella germanica, 18-24 hours, read-out: % Kill) of the same molecule?
A: 100%

Q: And the “% Knockdown” value (German cockroaches [3]; 30 minutes after immersion)?
A: 100%

Q: What about the mortality at 39 ppm (plum curculio; 39 ppm) of the same molecule?
A: 0%

Q: What about the mortality at 156 ppm (plum curculio; 156 ppm) of the same molecule?
A: 22%

Q: What about the mortality at 1250 ppm (plum curculio; 1250 ppm) of the same molecule?
A: 85%

Q: What about the mortality at 39 ppm (twospotted spider mite [4]; 39 ppm) of the same molecule?
A: 21%

Q: What about the mortality at 156 ppm (twospotted spider mite [4]; 156 ppm) of the same molecule?
A: 37%

Q: What about the mortality at 1250 ppm (twospotted spider mite [4]; 1250 ppm) of the same molecule?
A: 100%

Q: And the mortality at 39 ppm (Mexican bean beetle [5]; 39 ppm)?
A: 38%

Q: What about the mortality at 156 ppm (Mexican bean beetle [5]; 156 ppm) of the same molecule?
A: 89%

Q: What about the mortality at 1250 ppm (Mexican bean beetle [5]; 1250 ppm) of the same molecule?
A: 86%

Q: And the mortality at 39 ppm (pea aphid [6]; 39 ppm)?
A: 100%

Q: What about the mortality at 156 ppm (pea aphid [6]; 156 ppm) of the same molecule?
A: 100%

Q: And the mortality at 39 ppm (large milkweed bug; 39 ppm)?
A: 100%

Q: What about the mortality at 156 ppm (large milkweed bug; 156 ppm) of the same molecule?
A: 100%

Q: And the mortality at 1250 ppm (large milkweed bug; 1250 ppm)?
A: 100%

Q: And the mortality at 39 ppm (southern armyworm [7]; 39 ppm)?
A: 0%

Q: And the mortality at 156 ppm (southern armyworm [7]; 156 ppm)?
A: 92%

Q: What about the mortality at 39 ppm (pea aphid [8]; 39 ppm) of the same molecule?
A: 0%

Q: What about the mortality at 156 ppm (pea aphid [8]; 156 ppm) of the same molecule?
A: 100%

Q: And the mortality at 1250 ppm (pea aphid [8]; 1250 ppm)?
A: 100%

Q: And the “% Knockdown” value ([9]; 10 minutes)?
A: 0%

Q: And the mortality at 0.001 mg ([9]; Musca domestica, topical, read-out: % Kill)?
A: 20%

Q: And the mortality at 39 ppm (confused flour beetle; 39 ppm)?
A: 14%

Q: And the mortality at 156 ppm (confused flour beetle; 156 ppm)?
A: 15%

Q: And the mortality at 1250 ppm (confused flour beetle; 1250 ppm)?
A: 33%

Q: What about the mortality at 0.001 mg (German cockroaches [10]; Blattella germanica, topical, read-out: % Kill) of the same molecule?
A: 0%

Q: And the “% Knockdown” value (German cockroaches [10]; 30 minutes)?
A: 0%

Q: And the mortality at 39 ppm (southern armyworm [11]; 39 ppm)?
A: 0%

Q: And the mortality at 156 ppm (southern armyworm [11]; 156 ppm)?
A: 5%

Q: And the mortality at 1250 ppm (southern armyworm [11]; 1250 ppm)?
A: 95%
